BindingDB's records for doi:10.1021/bi020016x (Weizmann Institute of Science, 2002)

Legend:
Acetylcholinesterase [1] = target: Acetylcholinesterase (Tetronarce californica, UniProt P04058); test: Enzyme Inhibition Assay; settings: pH 7.5; 25 °C
Description: (§1) The cholinesterase assays were performed using colorimetric method reported by Ellman. Enzyme activity was determined by measuring the absorbance at 412 nm for 2 min, relative to the drug-free control. Triplicate measurements were carried out at a total of 8 drug concentrations. The IC50 values were determined from a plot of percentage of inhibition vs -log [drug].

Acetylcholinesterase [2] = target: Acetylcholinesterase (Homo sapiens, UniProt P22303); test: Enzyme Inhibition Assay; settings: pH 7.5; 25 °C
Acetylcholinesterase (Homo sapiens, UniProt P22303), sequence (P22303 whole entry): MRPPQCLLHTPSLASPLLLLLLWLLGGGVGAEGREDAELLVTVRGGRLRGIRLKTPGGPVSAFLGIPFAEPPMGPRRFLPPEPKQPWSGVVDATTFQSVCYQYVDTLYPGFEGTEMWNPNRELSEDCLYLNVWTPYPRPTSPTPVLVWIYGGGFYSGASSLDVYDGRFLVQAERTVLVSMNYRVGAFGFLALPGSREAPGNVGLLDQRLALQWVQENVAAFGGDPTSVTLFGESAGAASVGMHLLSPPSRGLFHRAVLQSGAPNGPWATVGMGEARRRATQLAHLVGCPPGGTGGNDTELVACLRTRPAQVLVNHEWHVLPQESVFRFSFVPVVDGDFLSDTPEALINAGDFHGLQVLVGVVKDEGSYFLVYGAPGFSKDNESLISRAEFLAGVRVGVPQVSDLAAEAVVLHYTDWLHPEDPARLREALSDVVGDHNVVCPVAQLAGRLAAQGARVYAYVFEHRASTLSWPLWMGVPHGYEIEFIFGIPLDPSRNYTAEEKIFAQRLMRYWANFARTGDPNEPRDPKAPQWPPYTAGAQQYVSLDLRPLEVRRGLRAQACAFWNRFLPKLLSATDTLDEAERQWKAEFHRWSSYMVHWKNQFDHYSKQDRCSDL
Description: as §1

Acetylcholinesterase (Tetronarce californica, UniProt P04058), sequence (P04058 whole entry): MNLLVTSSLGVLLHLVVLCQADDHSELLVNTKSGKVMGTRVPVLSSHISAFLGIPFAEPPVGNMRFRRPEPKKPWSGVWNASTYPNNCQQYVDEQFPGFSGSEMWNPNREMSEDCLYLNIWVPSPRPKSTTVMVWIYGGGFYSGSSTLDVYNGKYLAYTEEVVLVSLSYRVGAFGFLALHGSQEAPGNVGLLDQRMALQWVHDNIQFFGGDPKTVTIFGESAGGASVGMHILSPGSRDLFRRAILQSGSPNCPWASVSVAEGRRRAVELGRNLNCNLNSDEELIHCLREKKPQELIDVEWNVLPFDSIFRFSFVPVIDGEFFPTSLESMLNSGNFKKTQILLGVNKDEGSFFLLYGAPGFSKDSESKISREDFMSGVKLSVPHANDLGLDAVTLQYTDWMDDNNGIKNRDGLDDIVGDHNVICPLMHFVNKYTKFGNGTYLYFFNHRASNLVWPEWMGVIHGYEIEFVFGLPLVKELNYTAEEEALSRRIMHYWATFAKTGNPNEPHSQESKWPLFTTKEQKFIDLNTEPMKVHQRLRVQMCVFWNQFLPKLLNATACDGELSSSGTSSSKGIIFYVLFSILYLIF

## C[C@@H](c1cccc(O)c1)N(C)C [3-[1-(dimethylamino)ethyl]phenol]
Acetylcholinesterase [1]
  Ki: 0.7 µM
Acetylcholinesterase [2]
  Ki: 33 µM
